Like-named read-outs stand apart in the source and are kept apart here.
Molecular target: Aurora A (Homo sapiens (Human), UniProt O14965)
Test: Aurora A kinase inhibition (IC50)
Format: biochemical

Sequence of Aurora A (O14965 whole entry): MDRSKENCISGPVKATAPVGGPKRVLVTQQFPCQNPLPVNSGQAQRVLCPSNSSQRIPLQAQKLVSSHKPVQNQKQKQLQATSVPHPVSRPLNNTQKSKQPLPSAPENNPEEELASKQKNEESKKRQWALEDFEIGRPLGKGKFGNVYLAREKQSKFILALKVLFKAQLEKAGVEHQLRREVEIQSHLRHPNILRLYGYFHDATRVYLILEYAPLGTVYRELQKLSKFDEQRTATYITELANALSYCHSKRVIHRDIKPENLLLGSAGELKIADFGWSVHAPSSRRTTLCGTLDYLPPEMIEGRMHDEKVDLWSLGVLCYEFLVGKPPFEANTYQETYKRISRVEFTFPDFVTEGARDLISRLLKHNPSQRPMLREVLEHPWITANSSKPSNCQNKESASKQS

`O=C(Nc1ccc(Nc2ccnc3[nH]c(=O)c4c(c23)CCCC4)cc1)c1ccccc1` [Compound 5, N-[4-(6-Oxo-5,6,7,8,9,10-hexahydrobenzo[c][1,8]naphthyridin-1-ylamino)-phenyl]-benzamide] showed an IC50 of 11 to 100 nM.
`O=C(Nc1ccc(Nc2ccnc3[nH]c(=O)c4c(c23)CCCC4)cc1)c1ccc(F)cc1C(F)(F)F` [Compound 6, 4-Fluoro-N-[4-(6-oxo-5,6,7,8,9,10-hexahydrobenzo[c][1,8]naphthyridin-1-ylamino)-phenyl]-2-trifluoromethyl-1-benzamide] was tested, and the IC50 was 1 to 10 nM.
`O=C(Nc1ccc(Nc2ccnc3[nH]c(=O)c4c(c23)CCCC4)cc1)c1cccc(F)c1F` [Compound 7, 2,3-Difluoro-N-[4-(6-oxo-5,6,7,8,9,10-hexahydrobenzo[c][1,8]naphthyridin-1-ylamino)-phenyl]-1-benzamide] gave an IC50 of 1 to 10 nM.
Work on `O=C(Nc1ccc(Nc2ccnc3[nH]c(=O)c4c(c23)CCCC4)cc1)c1ccc(F)c(F)c1` [Compound 8, 3,4-Difluoro-N-[4-(6-oxo-5,6,7,8,9,10-hexahydrobenzo[c][1,8]naphthyridin-1-ylamino)-phenyl]-1-benzamide] yielded an IC50 of 1 to 10 nM.
`O=C(Nc1ccc(Nc2ccnc3[nH]c(=O)c4c(c23)CCCC4)cc1)c1cc(F)cc(F)c1` [Compound 9, 3,5-Difluoro-N-[4-(6-oxo-5,6,7,8,9,10-hexahydrobenzo[c][1,8]naphthyridin-1-ylamino)-phenyl]-1-benzamide] was tested, and the IC50 was 1 to 10 nM.
`O=C(Nc1ccc(Nc2ccnc3[nH]c(=O)c4c(c23)CCCC4)cc1)c1ccc(F)cc1` [Compound 10, 4-Fluoro-N-[4-(6-oxo-5,6,7,8,9,10-hexahydrobenzo[c][1,8]naphthyridin-1-ylamino)-phenyl]-1-benzamide] was tested, and the IC50 was 1 to 10 nM.
Compound `O=C(Nc1ccc(Nc2ccnc3[nH]c(=O)c4c(c23)CCCC4)cc1)c1cccc(C(F)(F)F)c1F` [Compound 11, 2-Fluoro-N-[4-(6-oxo-5,6,7,8,9,10-hexahydrobenzo[c][1,8]naphthyridin-1-ylamino)-phenyl]-3-trifluoromethyl-benzamide] has an IC50 of 1 to 10 nM.
`O=C(Nc1ccc(Nc2ccnc3[nH]c(=O)c4c(c23)CCCC4)cc1)c1cc(Cl)cc(Cl)c1` [Compound 12, 3,5-Dichloro-N-[4-(6-oxo-5,6,7,8,9,10-hexahydrobenzo[c][1,8]naphthyridin-1-ylamino)-phenyl]-1-benzamide] showed an IC50 (read-out: Aurora A IC50) of 11 to 100 nM.
With `O=C(Nc1ccc(Nc2ccnc3[nH]c(=O)c4c(c23)CCCC4)cc1)c1c(Cl)cccc1Cl` [Compound 13, 2,6-Dichloro-N-[4-(6-oxo-5,6,7,8,9,10-hexahydrobenzo[c][1,8]naphthyridin-1-ylamino)-phenyl]-1-benzamide] the IC50 was 1 to 10 nM.
`O=C(Nc1ccc(Nc2ccnc3[nH]c(=O)c4c(c23)CCNC4)cc1)c1ccc(F)cc1C(F)(F)F` [Compound 24, 4-Fluoro-N-[4-(9-oxo-5,6,7,8,9,10-hexahydro-1,7,10-triaza-phenanthren-4-ylamino)-phenyl]-2-trifluoromethyl-benzamide] showed an IC50 (read-out: Aurora A IC50) of 11 to 100 nM.
`O=C(Nc1ccc(Nc2ccnc3[nH]c(=O)c4c(c23)CCNC4)cc1)c1ccc(F)cc1` [Compound 25, 4-Fluoro-N-[4-(9-oxo-5,6,7,8,9,10-hexahydro-1,7,10-triaza-phenanthren-4-ylamino)-phenyl]-benzamide] gave an IC50 of 101 to 1000 nM.
Compound `O=C(Nc1ccc(Nc2ccnc3[nH]c(=O)c4c(c23)CCNC4)cc1)c1ccc(F)c(F)c1` [Compound 26, 3,4-Difluoro-N-[4-(9-oxo-5,6,7,8,9,10-hexahydro-1,7,10-triaza-phenanthren-4-ylamino)-phenyl]-benzamide] has an IC50 of 11 to 100 nM.
Work on `O=C(Nc1ccc(Nc2ccnc3[nH]c(=O)c4c(c23)CCNC4)cc1)c1ccccc1` [Compound 27, N-[4-(9-oxo-5,6,7,8,9,10-hexahydro-1,7,10-triaza-phenanthren-4-ylamino)-phenyl]-benzamide] yielded an IC50 of 101 to 1000 nM.
With `O=C(Nc1ccc(Nc2ccnc3[nH]c(=O)c4c(c23)CNCC4)cc1)c1ccccc1` [Compound 28, N-[4-(9-oxo-5,6,7,8,9,10-hexahydro-1,6,10-triaza-phenanthren-4-ylamino)-phenyl]-benzamide] the IC50 was 101 to 1000 nM.
`O=C(Nc1ccc(Nc2ccnc3[nH]c(=O)c4c(c23)CCN(Cc2ccccc2)C4)cc1)c1ccccc1` [Compound 29, N-[4-(7-Benzyl-9-oxo-5,6,7,8,9,10-hexahydro-1,7,10-triaza-phenanthren-4-ylamino)-phenyl]-benzamide] gave an IC50 of 101 to 1000 nM.
`O=c1[nH]c2nccc(Cl)c2c2cn(C(c3ccccc3)(c3ccccc3)c3ccccc3)nc12` [Compound 31, 9-Chloro-2-trityl-2H-pyrazolo[3,4-c][1,8]naphthyridin-4(5H)-one] was tested, and the IC50 (read-out: Aurora A IC50) was 101 to 1000 nM.
Work on `O=C(Nc1ccc(Nc2ccnc3[nH]c(=O)c4n[nH]cc4c23)cc1)c1ccccc1` [Compound 33, N-(4-(4-oxo-4,5-dihydro-2H-pyrazolo[3,4-c][1,8]naphthyridin-9-ylamino)phenyl)benzamide] yielded an IC50 of 11 to 100 nM.
`O=C(Nc1ccc(Nc2ccnc3[nH]c(=O)c4n[nH]cc4c23)cc1)c1ccc(F)cc1C(F)(F)F` [Compound 34, 4-fluoro-N-(4-(4-oxo-4,5-dihydro-2H-pyrazolonaphthyridin-9-ylamino)phenyl)-2-(trifluoromethyl)benzamide] showed an IC50 of 1 to 10 nM.
In the case of `O=C(Nc1ccc(Nc2ccnc3[nH]c(=O)c4ccoc4c23)cc1)c1ccccc1` [Compound 36, N-[4-(4-oxo-4,5-dihydro-furo[3,2-c][1,8]naphthyridin-9-ylamino)-phenyl]-benzamide], the IC50 is reported as 11 to 100 nM.
`O=c1[nH]c2nccc(Nc3ccccc3)c2c2occc12` [Compound 37, 9-Phenylamino-5H-furo[3,2-c][1,8]naphthyridin-4-one] gave an IC50 of 101 to 1000 nM.
`COc1ccc(Nc2ccnc3[nH]c(=O)c4ccoc4c23)cc1` [Compound 38, 9-(4-Methoxy-phenylamino)-5H-furo[3,2-c][1,8]naphthyridin-4-one] gave an IC50 of 101 to 1000 nM.
In the case of `O=c1[nH]c2nccc(Nc3ccc(Cl)cc3)c2c2occc12` [Compound 39, 9-(4-Chloro-phenylamino)-5H-furo[3,2-c][1,8]naphthyridin-4-one], the IC50 is reported as 101 to 1000 nM.
In the case of `COc1cccc(Nc2ccnc3[nH]c(=O)c4ccoc4c23)c1` [Compound 40, 9-(3-Methoxy-phenylamino)-5H-furo[3,2-c][1,8]naphthyridin-4-one], the IC50 is reported as 101 to 1000 nM.
With `Nc1ccc(Oc2ccnc3[nH]c(=O)c4c(c23)CCCC4)cc1` [Compound 46, 1-(4-Amino-phenoxy)-7,8,9,10-tetrahydro-5H-benzo[c][1,8]naphthyridin-6-one] the IC50 was 101 to 1000 nM.
`O=c1[nH]c2nccc(Oc3ccc4c(c3)OCCN4)c2c2c1CCCC2` [Compound 47, 1-(3,4-Dihydro-2H-benzo[1,4]oxazin-7-yloxy)-7,8,9,10-tetrahydro-5H-benzo[c][1,8]naphthyridin-6-one] showed an IC50 (read-out: Aurora A IC50) of 101 to 1000 nM.
In the case of `O=C(Nc1ccc(Oc2ccnc3[nH]c(=O)c4c(c23)CCCC4)cc1)c1cccn(-c2ccc(F)cc2)c1=O` [Compound 48, 1-(4-Fluoro-phenyl)-2-oxo-1,2-dihydro-pyridine-3-carboxylic acid [4-(6-oxo-5,6,7,8,9,10-hexahydro-benzo[c][1,8]naphthyridin-1-yloxy)-phenyl]-amide], the IC50 is reported as 101 to 1000 nM.
`O=C(c1cccn(-c2ccc(F)cc2)c1=O)N1CCOc2cc(Oc3ccnc4[nH]c(=O)c5c(c34)CCCC5)ccc21` [Compound 49, 1-{4-[1-(4-Fluoro-phenyl)-2-oxo-1,2-dihydro-pyridine-3-carbonyl]-3,4-dihydro-2H-benzo[1,4]oxazin-7-yloxy}-7,8,9,10-tetrahydro-5H-benzo[c][1,8]naphthyridin-6-one] showed an IC50 (read-out: Aurora A IC50) of 101 to 1000 nM.
In the case of `Cc1cccc(-n2nc(C(C)(C)C)cc2NC(=O)Nc2ccc(Oc3ccnc4[nH]c(=O)c5c(c34)CCCC5)cc2)c1` [Compound 51, 1-(5-tert-Butyl-2-m-tolyl-2H-pyrazol-3-yl)-3-[4-(6-oxo-5,6,7,8,9,10-hexahydro-benzo[c][1,8]naphthyridin-1-yloxy)-phenyl]-urea], the IC50 (read-out: Aurora A IC50) is reported as 101 to 1000 nM.
With `O=C(Nc1ccc(Nc2ccnc3[nH]c(=O)c4c(c23)CCCC4)c(F)c1)c1ccc(F)cc1C(F)(F)F` [Compound 52, 4-Fluoro-N-[3-fluoro-4-(6-oxo-5,6,7,8,9,10-hexahydrobenzo[c][1,8]naphthyridin-1-ylamino)-phenyl]-2-trifluoromethyl-benzamide] the IC50 was 1 to 10 nM.
For `O=C(Nc1ccc(Nc2ccnc3[nH]c(=O)c4c(c23)CCCC4)c(F)c1)c1cccc(F)c1` [Compound 53, 3-Fluoro-N-[3-fluoro-4-(6-oxo-5,6,7,8,9,10-hexahydrobenzo[c][1,8]naphthyridin-1-ylamino)-phenyl]-2-benzamide], the IC50 was 1 to 10 nM.
Compound `O=C(Nc1ccc(Nc2ccnc3[nH]c(=O)c4c(c23)CCCC4)cc1F)c1ccc(F)cc1C(F)(F)F` [Compound 54, 4-Fluoro-N-[2-fluoro-4-(6-oxo-5,6,7,8,9,10-hexahydrobenzo[c][1,8]naphthyridin-1-ylamino)-phenyl]-2-trifluoromethyl-benzamide] has an IC50 of 1 to 10 nM.
Compound `O=C(Nc1ccc(Nc2ccnc3[nH]c(=O)c4c(c23)CCCC4)c(F)c1)c1ccc(F)c(F)c1` [Compound 55, 3,4-Difluoro-N-[3-fluoro-4-(6-oxo-5,6,7,8,9,10-hexahydrobenzo[c][1,8]naphthyridin-1-ylamino)-phenyl]-1-benzamide] has an IC50 of 1 to 10 nM.
For `O=C(Nc1ccc(Nc2ccnc3[nH]c(=O)c4c(c23)CCCC4)c(F)c1)c1cccc(F)c1F` [Compound 56, 2,3-Difluoro-N-[3-fluoro-4-(6-oxo-5,6,7,8,9,10-hexahydrobenzo[c][1,8]naphthyridin-1-ylamino)-phenyl]-1-benzamide], the IC50 was 1 to 10 nM.
